Data set [1] deals with C. difficile R20291 spores. The settings on record: literature, cited from earlier work.
For data set [2], the target named is C. difficile spore germination. The conditions noted are these: literature values; read-out: Ki, inhibition of germination; cited from earlier work.
In data set [3] the test system is C. difficile 630 strain. The settings on record: literature, cited from earlier work; for IC50: read-out: IC50 against 630 strain.
Data set [4] in a line: Incubation with feces / murine microbiota (degradation). It counts as in vitro ADME. The conditions noted are these: 3 days incubation with feces.
Data set [5] has as its system C. difficile R20291 spores. Description: C. difficile spore germination assay (optical density, OD580). The settings on record: Clostridioides difficile, R20291SPORES, 6 mM taurocholate, 12 mM glycine; for activity at 125 µM: compound 125 μM.
Data set [6] concerns C. difficile 630 strain. Kind of data set: Spore germination inhibition against C. difficile 630 strain (literature). The data set is classed as cell-based.

The structures appear in SMILES notation. Entries after “also recorded” stand apart in the source; their conditions may differ. Like-named read-outs stand apart in the source and are kept apart here.

Broadly, the Ki is a measure of affinity in units of concentration, obtained from inhibition or displacement. In general, IC50 refers to the concentration that gives 50% inhibition.

For `C[C@H](CCC(=O)Nc1cccc(S(=O)(=O)O)c1)[C@H]1CC[C@H]2[C@@H]3[C@H](O)C[C@@H]4C[C@H](O)CC[C@]4(C)[C@H]3C[C@H](O)[C@]12C` [CamSA], the “Activity against R20291 strain” value in data set [1] (hypervirulent R20291 strain) was “no inhibitory or prophylactic activity; also recorded: inactive”. The Ki in data set [2] was 50 µM. Also, in the data set on C. difficile 630 strain [3], the IC50 was 58 µM and the “Activity against 630 strain” value is listed as “active”.
On to `C[C@H](CCc1ncc2ccccc2n1)[C@H]1CC[C@H]2[C@@H]3[C@H](O)C[C@@H]4C[C@H](O)CC[C@]4(C)[C@H]3C[C@H](O)[C@]12C` [Compound 29], for which the “Degradation on incubation with feces” value in data set [4] is given as “not degraded”. In data set [5] (Table 3), this molecule yielded a half-inhibitory concentration (IC50) of 22 ± 3 µM. The activity at 125 µM in data set [5] (read-out: % Germination, Table 3, ± standard deviation) stood at 17 ± 3%.
On to `C[C@H](CCC(=O)Nc1ccccc1)[C@H]1CC[C@H]2[C@@H]3[C@H](O)C[C@@H]4C[C@H](O)CC[C@]4(C)[C@H]3CC[C@]12C` [Compound 53], for which the “Activity against 630 strain” value in the data set with C. difficile 630 strain [3] is “inactive up to the maximum tested concentration”. This molecule came in with an IC50 in data set [5] (Table 5) of 4 ± 0.5 µM. For the same molecule, the activity at 125 µM in data set [5] (read-out: % Germination (125 μM), Table 5, 100% indicates no inhibition) stood at 14 ± 0.6%.
Regarding `C[C@H](CCC(=O)Nc1ccccc1)[C@H]1CC[C@H]2[C@@H]3CCC4CCCC[C@]4(C)[C@H]3CC[C@]12C` (stereo partly drawn) [N-(Phenyl)-cholan-24-amide], the concentration for half-maximal inhibition (IC50) in data set [1] (R20291 strain, read-out: IC50 against R20291 strain) was 1.8 µM; in the data set with C. difficile 630 strain [3] it was 270 µM.
As for `C[C@H](CCC(=O)O)[C@H]1CC[C@H]2[C@@H]3[C@H](O)C[C@@H]4C[C@H](O)CC[C@]4(C)[C@H]3CC[C@]12C` [chenodeoxycholate], the Ki in data set [2] was 378 µM.
Regarding `C[C@H](CCC(=O)Nc1cccc(S(=O)(=O)O)c1)[C@H]1CC[C@H]2[C@@H]3[C@H](O)C[C@@H]4C[C@H](O)CC[C@]4(C)[C@H]3CC[C@]12C` [chenodeoxycholic analog of CamSA], in the data set on C. difficile 630 strain [6], the “Potency relative to the cholate derivative CamSA (less potent)” value is recorded as “approximately 100 fold”. Also, the IC50 with C. difficile 630 strain [3] was 6500 µM.
